{
  "source": "patent US4500712A",
  "about": "“Ergoline derivatives” (Farmitalia Carlo Erba S.p.A., priority 1981, dated 1985)",
  "key": {"[1]": {"tested_on": "systolic blood pressure (S.B.P.) in SH-rats", "assay": "Systolic blood pressure in spontaneously hypertensive rats (indirect tail cuff method)", "assay_type": "in vivo, spontaneously hypertensive rats (SHR, Kyoto)", "protocol": "(§1) Indirect measurements of systolic blood pressure were carried out on groups of 4 spontaneously hypertensive rats (SHR, Kyoto), 8-10 weeks of age, supplied by Charles Rives, Italy.\n(§2) The animals were maintained in an environment of 36° C. for 10-15 minutes to allow pulse pressure to be recorded and then systolic blood pressure and heart rate were measured by indirect tail cuff method using a W+W, BP recorder, model 8005.\n(§3) The compounds were given orally, suspended in 5% arabic gum, once a day for 4 consecutive days and measurements were carried out before beginning the treatment and 1 and 5 hours after dosing in both the first and fourth day of treatment.\n(§4) Control animals received the vehicle only (0.2 ml/100 g b.w.). As reference standards, hydralazine (1-5 mg/kg p.o.) and α-methyl-dopa (30-100 mg/kg p.o.) were also tested.\n(§5) Drug-induced changes in systolic blood pressure and heart rate were calculated as differences from the pretreatment values."}, "[2]": {"tested_on": "heart rate (HR) in SH-rats", "assay": "Heart rate in spontaneously hypertensive rats (indirect tail cuff method)", "protocol": "as §1, §2, §3, §4, §5"}, "[3]": {"tested_on": "restraint ulcers", "assay": "Inhibition of restraint ulcers in rats (Bonfils et al.)", "assay_type": "in vivo, Sprague-Dawley male rats", "conditions": "1 h; rat, oral, one hour before immobilization; read-out: Anticular activity (ED50, mg/kg p.o.)", "protocol": "The anti-ulcerogenic activity of the compounds of the present invention is shown, e.g., by the fact that they are active in the test of the inhibition of restraint ulcers in rats, according to the method of Bonfils et al., (Therapie, 1960, 15, 1096). According to this method the tested compounds were administered per os one hour before the immobilization.\nSix Sprague-Dawley male rats (100-120 g), fasted 24 hours, were used for the experiment: a square flexible small-mesh wire netting was used for the immobilization and 4 hours after the immobilization the rats were sacrificed, their stomachs were removed and the lesions counted under a dissecting microscope."}, "[4]": {"tested_on": "gastric secretion", "assay": "Gastric antisecretory activity in pylorus-ligated rats (Shay et al.)", "assay_type": "in vivo, Sprague-Dawley male rats", "conditions": "4 h; rat, intraduodenal, at the time of ligature; read-out: Antisecretory activity (ED50, mg/kg i.d.)", "protocol": "According to this method the tested compounds were injected intraduodenally at the time of ligature. Six Sprague-Dawley male rats (110-130 g) were used for each group. Twenty-four hours before the test, the rats were deprived of food but the water supply was maintained. On the day of the operation, the pylorus was ligated under light ether anaesthesia. Four hours after the ligature, the rats were sacrificed. The stomach secretion was collected and centrifuged at 3500 r.p.m. for 10 minutes and the volume, less sediment, was determined. The amount of free hydrochloric acid in the gastric juice was determined by titration against 0.01N sodium hydroxide, to an end point of pH 7."}, "[5]": {"tested_on": "syndrome induced by oxotremorine", "conditions": "general statement; cited from earlier work"}, "[6]": {"conditions": "1 mg/kg p.o., 1st day, 1 h post drug"}, "[7]": {"conditions": "1 mg/kg p.o., 1st day, 5 h post drug"}, "[8]": {"conditions": "1 mg/kg p.o., 4th day, 1 h post drug"}, "[9]": {"conditions": "1 mg/kg p.o., 4th day, 5 h post drug"}, "[10]": {"conditions": "5 mg/kg p.o., 1st day, 1 h post drug"}, "[11]": {"conditions": "5 mg/kg p.o., 1st day, 5 h post drug"}, "[12]": {"conditions": "5 mg/kg p.o., 4th day, 1 h post drug"}, "[13]": {"conditions": "5 mg/kg p.o., 4th day, 5 h post drug"}},
  "data": [
    {"smiles": "NNc1nncc2ccccc12", "note": "[Hydralazine, hydralazine]", "values": [
      {"measurement": "Changes in S.B.P", "setting": "[1]; [6]", "result": "-5 ΔmmHg"},
      {"measurement": "Changes in S.B.P", "setting": "[1]; [7]", "result": "-15 ΔmmHg"},
      {"measurement": "Changes in S.B.P", "setting": "[1]; [8]", "result": "-5 ΔmmHg"},
      {"measurement": "Changes in S.B.P", "setting": "[1]; [9]", "result": "0 ΔmmHg"},
      {"measurement": "Changes in S.B.P", "setting": "[1]; [10]", "result": "-40 ΔmmHg"},
      {"measurement": "Changes in S.B.P", "setting": "[1]; [11]", "result": "-20 ΔmmHg"},
      {"measurement": "Changes in S.B.P", "setting": "[1]; [12]", "result": "-20 ΔmmHg"},
      {"measurement": "Changes in S.B.P", "setting": "[1]; [13]", "result": "-7 ΔmmHg"},
      {"measurement": "Changes in HR", "setting": "[2]; [6]", "result": "+30 beats/min"},
      {"measurement": "Changes in HR", "setting": "[2]; [7]", "result": "+35 beats/min"},
      {"measurement": "Changes in HR", "setting": "[2]; [8]", "result": "+25 beats/min"},
      {"measurement": "Changes in HR", "setting": "[2]; [9]", "result": "+15 beats/min"},
      {"measurement": "Changes in HR", "setting": "[2]; [10]", "result": "+40 beats/min"},
      {"measurement": "Changes in HR", "setting": "[2]; [11]", "result": "+45 beats/min"},
      {"measurement": "Changes in HR", "setting": "[2]; [12]", "result": "+18 beats/min"},
      {"measurement": "Changes in HR", "setting": "[2]; [13]", "result": "+15 beats/min"},
      {"measurement": "effects on heart rate (in words)", "setting": "[2]; Table 3, SH-rats", "result": "increase HR"}
    ]},
    {"smiles": "C[C@](N)(Cc1ccc(O)c(O)c1)C(=O)O", "note": "[α-methyl-DOPA, α-methyl-dopa]", "values": [
      {"measurement": "Changes in S.B.P", "setting": "[1]; 30 mg/kg p.o., 1st day, 1 h post drug", "result": "-10 ΔmmHg"},
      {"measurement": "Changes in S.B.P", "setting": "[1]; 30 mg/kg p.o., 1st day, 5 h post drug", "result": "-20 ΔmmHg"},
      {"measurement": "Changes in S.B.P", "setting": "[1]; 30 mg/kg p.o., 4th day, 1 h post drug", "result": "-10 ΔmmHg"},
      {"measurement": "Changes in S.B.P", "setting": "[1]; 30 mg/kg p.o., 4th day, 5 h post drug", "result": "0 ΔmmHg"},
      {"measurement": "Changes in S.B.P", "setting": "[1]; 100 mg/kg p.o., 1st day, 1 h post drug", "result": "-10 ΔmmHg"},
      {"measurement": "Changes in S.B.P", "setting": "[1]; 100 mg/kg p.o., 1st day, 5 h post drug", "result": "-25 ΔmmHg"},
      {"measurement": "Changes in S.B.P", "setting": "[1]; 100 mg/kg p.o., 4th day, 1 h post drug", "result": "-20 ΔmmHg"},
      {"measurement": "Changes in S.B.P", "setting": "[1]; 100 mg/kg p.o., 4th day, 5 h post drug", "result": "-25 ΔmmHg"},
      {"measurement": "effects on heart rate (in words)", "setting": "[2]; rat, in vivo", "result": "increase HR"}
    ]},
    {"smiles": "CC(=O)NC(=O)NC[C@H]1C[C@@H]2c3cccc4[nH]cc(c34)C[C@H]2N(C)C1", "note": "[Ex 26, 6-Methyl-8α-(3-acetyl-ureidomethyl)-ergoline]", "values": [
      {"measurement": "Changes in S.B.P", "setting": "[1]; [10]", "result": "-28 ΔmmHg"},
      {"measurement": "Changes in S.B.P", "setting": "[1]; [11]", "result": "-60 ΔmmHg"},
      {"measurement": "Changes in S.B.P", "setting": "[1]; [12]", "result": "-45 ΔmmHg"},
      {"measurement": "Changes in S.B.P", "setting": "[1]; [13]", "result": "-36 ΔmmHg"}
    ]},
    {"smiles": "CN1C[C@H](CNC(=S)NC(=O)c2ccccc2)C[C@@H]2c3cccc4[nH]cc(c34)C[C@H]21", "note": "[Ex 2, 6-Methyl-8β-(3-benzoyl-thioureidomethyl)-ergoline]", "values": [
      {"measurement": "ED50", "setting": "[3]", "result": 0.7, "unit": "mg/kg"},
      {"measurement": "ED50", "setting": "[4]", "result": 1.4, "unit": "mg/kg"}
    ]},
    {"smiles": "CN1[C@@H]2CC[C@H]1C[C@@H](OC(=O)C(CO)c1ccccc1)C2", "note": "(some centres unmarked) [atropine]", "values": [
      {"measurement": "anti-cholinergic activity of known agent", "setting": "[5]", "result": "remarkable but undesired anti-cholinergic activity"}
    ]},
    {"smiles": "CN1C[C@@H](CNC(=S)NC(=O)c2ccccc2)C[C@H]2c3cccc4[nH]cc(c34)C[C@H]21", "note": "[Ex 1, 6-Methyl-8α-(3-benzoyl-thioureidomethyl)-10β-ergoline]", "values": [
      {"measurement": "ED50", "setting": "[3]", "result": 4.2, "unit": "mg/kg"},
      {"measurement": "ED50", "setting": "[4]", "result": 2.5, "unit": "mg/kg"}
    ]},
    {"smiles": "CN1C[C@@H](CNC(=O)NC(=O)c2ccccc2)C[C@@H]2c3cccc4[nH]cc(c34)C[C@H]21", "note": "[Ex 10, 6-Methyl-8α-(3-benzoyl-ureidomethyl)-ergoline]", "values": [
      {"measurement": "ED50", "setting": "[3]", "result": 7, "unit": "mg/kg"},
      {"measurement": "ED50", "setting": "[4]", "result": 1, "unit": "mg/kg"}
    ]},
    {"smiles": "CC(=O)NC(=O)NC[C@@H]1C[C@@H]2c3cccc4[nH]cc(c34)C[C@H]2N(C)C1", "note": "[Ex 9, 6-Methyl-8β-(3-acetyl-ureidomethyl)-ergoline]", "values": [
      {"measurement": "Changes in S.B.P", "setting": "[1]; [10]", "result": "-25 ΔmmHg"},
      {"measurement": "Changes in S.B.P", "setting": "[1]; [11]", "result": "-17 ΔmmHg"},
      {"measurement": "Changes in S.B.P", "setting": "[1]; [12]", "result": "-57 ΔmmHg"},
      {"measurement": "Changes in S.B.P", "setting": "[1]; [13]", "result": "-56 ΔmmHg"}
    ]}
  ]
}
